Measured values: ChEMBL document CHEMBL1143218 (Bioorg Med Chem Lett, 2008)

How the values were obtained:
[1] = target: Sodium-dependent serotonin transporter (Homo sapiens, UniProt P31645)
[2] = target: Sodium-dependent dopamine transporter (Homo sapiens, UniProt Q01959)
Sequence of Sodium-dependent dopamine transporter (Q01959 whole entry): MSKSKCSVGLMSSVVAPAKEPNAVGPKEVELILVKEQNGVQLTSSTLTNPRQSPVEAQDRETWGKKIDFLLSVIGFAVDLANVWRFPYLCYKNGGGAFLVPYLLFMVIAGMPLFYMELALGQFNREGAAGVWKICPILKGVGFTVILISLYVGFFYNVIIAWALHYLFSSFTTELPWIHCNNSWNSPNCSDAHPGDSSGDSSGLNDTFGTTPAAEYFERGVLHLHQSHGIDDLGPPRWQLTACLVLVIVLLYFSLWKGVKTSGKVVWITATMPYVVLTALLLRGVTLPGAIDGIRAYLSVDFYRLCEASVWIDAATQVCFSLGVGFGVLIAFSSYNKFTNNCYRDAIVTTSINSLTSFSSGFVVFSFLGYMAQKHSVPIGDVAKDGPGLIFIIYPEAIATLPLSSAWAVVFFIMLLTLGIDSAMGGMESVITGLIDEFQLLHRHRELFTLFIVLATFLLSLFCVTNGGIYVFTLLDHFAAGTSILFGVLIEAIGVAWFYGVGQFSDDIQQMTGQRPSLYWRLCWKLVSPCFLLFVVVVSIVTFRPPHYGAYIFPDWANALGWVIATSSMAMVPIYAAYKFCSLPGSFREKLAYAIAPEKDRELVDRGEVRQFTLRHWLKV

Sequence of Sodium-dependent serotonin transporter (P31645 whole entry): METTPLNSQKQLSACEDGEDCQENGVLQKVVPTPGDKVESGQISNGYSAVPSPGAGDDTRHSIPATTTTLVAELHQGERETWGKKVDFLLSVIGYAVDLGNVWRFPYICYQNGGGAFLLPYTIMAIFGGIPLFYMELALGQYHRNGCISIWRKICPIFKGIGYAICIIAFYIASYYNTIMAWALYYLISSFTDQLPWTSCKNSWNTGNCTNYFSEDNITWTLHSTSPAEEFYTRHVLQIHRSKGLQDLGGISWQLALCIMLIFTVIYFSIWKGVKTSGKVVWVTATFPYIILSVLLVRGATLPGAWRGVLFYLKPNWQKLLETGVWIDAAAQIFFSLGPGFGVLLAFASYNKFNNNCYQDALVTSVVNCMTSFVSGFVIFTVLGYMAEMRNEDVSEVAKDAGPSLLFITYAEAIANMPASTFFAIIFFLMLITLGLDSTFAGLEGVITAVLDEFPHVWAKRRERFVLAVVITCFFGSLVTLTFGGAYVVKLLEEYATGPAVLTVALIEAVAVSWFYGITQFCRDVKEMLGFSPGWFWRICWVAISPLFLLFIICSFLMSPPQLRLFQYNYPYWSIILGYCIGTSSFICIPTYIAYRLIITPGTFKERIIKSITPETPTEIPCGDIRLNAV

| IC50 [1] [µM] | IC50 [2] [µM] | Compound |
| --- | --- | --- |
| 1.3 | > 10 | CCNCC1CC1(C(=O)N(CC)CC)c1ccccc1 (racemic) |
| 1.2 | 4.6 | NCC1CC1(C(=O)N1CCCCC1)c1ccccc1 (racemic) |
| 3.2 | > 10 | NCC1CC1(C(=O)NCc1ccccc1)c1ccccc1 (racemic) |
| 1.7 | > 10 | CCCN(CC)C(=O)C1(c2ccccc2)CC1CN (racemic) |
| 0.013 | 3.9 | NCC1CC1(C(=O)N1CCc2ccccc21)c1ccccc1 (racemic) |
| 0.16 | > 10 | CCN(Cc1ccccc1)C(=O)C1(c2ccccc2)CC1CN (racemic) |
|  | > 10 | NCC1CC1(C(=O)C1NCCc2ccccc21)c1ccccc1 (racemic) |
| 4.4 | > 10 | CCN(C(=O)C1(c2ccccc2)CC1CN)c1ccccc1 (racemic) |
| 4.4 | > 10 | CCN(CC)C(=O)C1(c2ccccc2)CC1CNCc1ccc[nH]1 (racemic) |
| > 10 | > 10 | CCN(C(=O)C1(c2ccccc2)CC1CN)C(C)(C)C (racemic) |
| 5.4 | > 10 | CCN(CC)C(=O)[C@@]1(c2ccccc2)CC1CNC (mixture of isomers) |
| 0.077 | > 10 | NCC(=O)NCC1CC1(C(=O)N1CCc2ccccc21)c1ccccc1 (racemic) |
| 4.8 | > 10 | CCN(CC)C(=O)C1(c2ccccc2)CC1CNCc1cnco1 (racemic) |
| > 10 | > 10 | CCN(CC)C(=O)C1(c2ccccc2)CC1CNCC1CCCC1 (racemic) |
| > 10 | 4.6 | CC(C)N(C(=O)C1(c2ccccc2)CC1CNC(=O)CN)C(C)C (racemic) |
| > 10 | 4.5 | CCN(CC)C(=O)C1(c2ccccc2)CC1CN(C)C (racemic) [N,N-DIMETHYL MILNACIPRAN] |
| > 10 | > 10 | CCCCNCC1CC1(C(=O)N(CC)CC)c1ccccc1 (racemic) |
| > 10 | > 10 | CC(C)N(C(=O)[C@@]1(c2ccccc2)CC1CN)C(C)C (mixture of isomers) |
| 0.1 | > 10 | NCC1CC1(C(=O)N1CCCc2ccccc21)c1ccccc1 (racemic) |

Second part, the compound before the results:

| Compound | IC50 [1] [µM] | IC50 [2] [µM] |
| --- | --- | --- |
| NCC1CC1(C(=O)N1CCCCCC1)c1ccccc1 (racemic) | 0.64 | > 10 |
| NCC1CC1(C(=O)Nc1ccccc1)c1ccccc1 (racemic) | > 10 | > 10 |
| CCN(CC)C(=O)C1(c2ccccc2)CC1CNCc1ccccn1 (racemic) | 3.5 | 6.2 |
| CCN(C)C(=O)C1(c2ccccc2)CC1CN (racemic) | 0.83 | 2.4 |
| CCCCN(CC)C(=O)C1(c2ccccc2)CC1CN (racemic) | 2 | > 10 |
| CCN(C(=O)C1(c2ccccc2)CC1CN)C1CCCCC1 (racemic) | 7.5 | > 10 |
| CCNC(=O)[C@@]1(c2ccccc2)CC1CN (mixture of isomers) | > 10 | > 10 |
| NCC1CC1(C(=O)N1CCOCC1)c1ccccc1 (racemic) | 1.7 | 7.4 |
| CCN(CC)C(=O)C1(c2ccccc2)CC1CNCc1ccncc1 (racemic) | > 10 | > 10 |
| CCN(CC)C(=O)C1(c2ccccc2)CC1CNCC(C)C (racemic) | > 10 | > 10 |
| CCN(CC)C(=O)C1(c2ccccc2)CC1CNCc1cccnc1 (racemic) | > 10 | > 10 |
| CCN(CC)C(=O)C1(c2ccccc2)CC1CNCc1ccco1 (racemic) | > 10 | > 10 |
| NCC(=O)NCC1CC1(C(=O)C1NCCc2ccccc21)c1ccccc1 (racemic) |  | > 10 |
| NCC1C[C@@]1(C(=O)N1CCCC1)c1ccccc1 (mixture of isomers) |  | > 10 |
| NCC1CC1(C(=O)NC1CC1)c1ccccc1 (racemic) | > 10 | > 10 |
| CCN(CC)C(=O)[C@@]1(c2ccccc2)C[C@H]1CNC(=O)CN (racemic) | 2.2 | > 10 |
| C=CCN(CC)C(=O)C1(c2ccccc2)CC1CN (racemic) | 0.28 | > 10 |
| CCN(CC)C(=O)C1(c2ccccc2)CC1CNCc1ncco1 (racemic) | 1.6 | > 10 |
| CCN(CC)C(=O)C1(c2ccccc2)CC1CNCC(OC)OC (racemic) | 1.1 | > 10 |
| CCN(CCOC)C(=O)C1(c2ccccc2)CC1CN (racemic) | 1.3 | > 10 |
